Test results: patent US20230365541A1, “INHIBITOR OF ENHANCER OF ZESTE HOMOLOGUE 2, AND USE THEREOF” (HAISCO PHARMACEUTICALS PTE. LTD., priority 2020, published 2023)
Counter-ions that a name gives are not always drawn.

Target: EZH2 (Homo sapiens (Human), UniProt Q15910)
Test: Test method for EZH2 enzyme activity
Assay type: biochemical
Conditions: H3K27(21-44) and [3H]-SAM
Description: The compounds were dissolved in DMSO, formulated into 10 mM solutions and serially diluted with DMSO to obtain 100-fold the final concentration. 200 nL of the solutions of the compounds was transferred to a 384-well plate (Perkin Elmer, Cat. No. 6007299) by using Echo550. EZH2 (BPS, Cat. No. 51004) was diluted with 1×assay buffer (50 mM Tris-HCl 9.0, 0.01% Tween-20, 1 mM DTT) to 2-fold the final concentration (EZH2: 3 nM). A mixed solution of H3K27(21-44) and [3H]-SAM (PerkinElmer, Lot. No. 2146246) (H3K27(21-44): 200 nM, [3H]-SAM: 100 nM) was formulated. The EZH2 diluted solution was taken and added to the 384-well plate at 10 μL/well (10 μL of 1×assay buffer was added in the control group). The plate was sealed and then incubated at room temperature for 15 minutes. 10 μL of the mixed solution of H3K27 (21-44) and [3H]-SAM was added to each well. The plate was sealed and then incubated at room temperature for 60 minutes. 50 μM of SAM (Sigma, Cat. No. A7007) was formulated at low temperature and added to the 384-well plate at 10 μL/well. The sample was taken at 25 μL/well, transferred to a flashplate and incubated at room temperature for at least 1 hour. The flashplate was washed 3 times with a plate washing liquid (dH2O+0.1% Tween-20) and read by using Microbeta. The inhibition rate was calculated in Excel according to: inhibition rate (%)=(maximum valuepositive control−detection signal value)/(maximum valuepositive control−minimum valuenegative control)*100, and IC50 values were fitted by using XL-Fit.

EZH2, sequence (Q15910 other isoform, or with tags, fused parts or gaps isoform Q15910-2): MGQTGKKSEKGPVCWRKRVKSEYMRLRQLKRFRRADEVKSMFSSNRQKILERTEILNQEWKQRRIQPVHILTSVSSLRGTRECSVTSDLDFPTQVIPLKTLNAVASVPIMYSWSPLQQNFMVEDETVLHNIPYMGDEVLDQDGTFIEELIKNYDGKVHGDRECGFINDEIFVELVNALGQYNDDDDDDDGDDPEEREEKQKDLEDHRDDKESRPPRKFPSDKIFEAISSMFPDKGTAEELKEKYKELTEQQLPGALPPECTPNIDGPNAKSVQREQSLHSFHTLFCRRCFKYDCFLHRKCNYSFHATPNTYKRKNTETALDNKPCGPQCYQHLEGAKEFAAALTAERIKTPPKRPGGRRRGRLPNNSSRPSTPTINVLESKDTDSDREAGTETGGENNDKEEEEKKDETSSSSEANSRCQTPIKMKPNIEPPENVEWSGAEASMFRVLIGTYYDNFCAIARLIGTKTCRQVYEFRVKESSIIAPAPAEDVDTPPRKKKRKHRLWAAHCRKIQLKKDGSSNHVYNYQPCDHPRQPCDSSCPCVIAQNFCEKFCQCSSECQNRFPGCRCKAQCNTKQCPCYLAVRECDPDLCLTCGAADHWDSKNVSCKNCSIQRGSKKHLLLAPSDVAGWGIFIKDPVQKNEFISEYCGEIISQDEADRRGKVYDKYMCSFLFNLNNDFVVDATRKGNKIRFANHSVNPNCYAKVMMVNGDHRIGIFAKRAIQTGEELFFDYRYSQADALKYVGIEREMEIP
EZH2, sequence (O75530 2-441 partner): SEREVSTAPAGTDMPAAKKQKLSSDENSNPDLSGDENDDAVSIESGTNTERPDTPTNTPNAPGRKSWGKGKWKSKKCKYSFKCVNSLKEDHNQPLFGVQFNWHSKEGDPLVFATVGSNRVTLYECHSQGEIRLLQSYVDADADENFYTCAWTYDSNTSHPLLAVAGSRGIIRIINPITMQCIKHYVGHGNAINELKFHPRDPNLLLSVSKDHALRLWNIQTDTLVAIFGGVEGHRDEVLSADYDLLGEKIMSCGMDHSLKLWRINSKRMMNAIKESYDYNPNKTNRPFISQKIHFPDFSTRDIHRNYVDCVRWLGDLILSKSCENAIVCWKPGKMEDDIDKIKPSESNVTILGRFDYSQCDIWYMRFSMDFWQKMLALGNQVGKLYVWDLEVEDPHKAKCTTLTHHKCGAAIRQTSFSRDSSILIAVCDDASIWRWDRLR
EZH2, sequence (Q15022 2-739 partner): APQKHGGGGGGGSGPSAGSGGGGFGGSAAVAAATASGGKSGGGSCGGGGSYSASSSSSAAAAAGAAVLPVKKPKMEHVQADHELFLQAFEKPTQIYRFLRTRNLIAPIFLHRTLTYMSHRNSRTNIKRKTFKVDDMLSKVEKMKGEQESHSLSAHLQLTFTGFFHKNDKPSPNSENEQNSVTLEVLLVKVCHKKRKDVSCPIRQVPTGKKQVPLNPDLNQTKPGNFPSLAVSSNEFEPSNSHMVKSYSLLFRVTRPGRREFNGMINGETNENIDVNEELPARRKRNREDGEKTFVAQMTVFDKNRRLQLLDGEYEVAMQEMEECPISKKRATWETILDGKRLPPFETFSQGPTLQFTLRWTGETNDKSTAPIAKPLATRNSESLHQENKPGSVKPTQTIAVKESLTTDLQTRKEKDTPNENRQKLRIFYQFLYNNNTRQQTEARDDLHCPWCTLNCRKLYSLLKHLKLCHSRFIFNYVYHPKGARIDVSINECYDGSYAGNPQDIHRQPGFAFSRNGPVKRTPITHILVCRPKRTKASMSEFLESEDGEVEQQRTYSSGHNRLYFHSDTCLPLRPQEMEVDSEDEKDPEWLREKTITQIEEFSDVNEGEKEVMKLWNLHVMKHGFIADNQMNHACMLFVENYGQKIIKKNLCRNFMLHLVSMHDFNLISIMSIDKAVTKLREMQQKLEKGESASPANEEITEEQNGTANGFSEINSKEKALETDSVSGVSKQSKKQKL
EZH2, sequence (Q09028 2-425 partner): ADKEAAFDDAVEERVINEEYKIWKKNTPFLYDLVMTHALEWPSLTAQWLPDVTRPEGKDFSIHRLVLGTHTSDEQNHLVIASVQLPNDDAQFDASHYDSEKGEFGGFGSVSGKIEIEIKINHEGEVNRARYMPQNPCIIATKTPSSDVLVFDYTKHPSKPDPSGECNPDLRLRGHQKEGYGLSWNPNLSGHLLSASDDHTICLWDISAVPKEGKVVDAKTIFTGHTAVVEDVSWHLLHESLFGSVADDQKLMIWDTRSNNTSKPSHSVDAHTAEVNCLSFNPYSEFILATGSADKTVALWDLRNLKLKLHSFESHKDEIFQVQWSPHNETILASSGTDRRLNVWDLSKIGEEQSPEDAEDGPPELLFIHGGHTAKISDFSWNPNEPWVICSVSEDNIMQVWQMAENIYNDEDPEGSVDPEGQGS
EZH2, sequence (Q6ZN18 whole entry partner): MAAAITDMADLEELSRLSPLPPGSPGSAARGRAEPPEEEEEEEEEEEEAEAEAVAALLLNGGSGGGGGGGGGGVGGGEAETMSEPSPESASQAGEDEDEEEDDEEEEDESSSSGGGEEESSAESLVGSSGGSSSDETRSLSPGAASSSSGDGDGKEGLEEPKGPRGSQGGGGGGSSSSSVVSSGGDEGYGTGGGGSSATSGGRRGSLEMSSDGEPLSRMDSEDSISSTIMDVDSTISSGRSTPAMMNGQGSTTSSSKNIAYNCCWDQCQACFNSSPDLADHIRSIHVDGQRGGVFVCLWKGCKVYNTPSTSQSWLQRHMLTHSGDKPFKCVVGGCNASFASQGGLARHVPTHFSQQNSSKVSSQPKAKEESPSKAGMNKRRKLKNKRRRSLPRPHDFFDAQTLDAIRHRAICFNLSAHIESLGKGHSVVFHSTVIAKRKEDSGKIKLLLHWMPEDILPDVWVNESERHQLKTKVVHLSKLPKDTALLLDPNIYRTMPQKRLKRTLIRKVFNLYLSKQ

## CSc1cc(C)[nH]c(=O)c1CNC(=O)c1cc(Cl)c2c(c1C)OC(C)(C1CCC(N3CC(N(C)C)C3)CC1)O2 (single isomer, unassigned) [Compound 1, isomer 2, 7-chloro-2-(4-(3-(dimethylamino)azetidin-1-yl)cyclohexyl)-2,4-dimethyl-N-((6-methyl-4-(methylthio)-2-oxo-1,2-dihydropyridin-3-yl)methyl)benzo[d][1,3]dioxole-5-carboxamide]
  IC50: 0.6 nM

## CSc1cc(C)[nH]c(=O)c1CNC(=O)c1cc(Cl)c2c(c1C)OC(C)(C1CCC(N3CC(C#N)C3)CC1)O2 (single isomer, unassigned) [Compound 2, isomer 1, 7-chloro-2-(4-(3-cyanoazetidin-1-yl)cyclohexyl)-2,4-dimethyl-N-((6-methyl-4-(methylthio)-2-oxo-1,2-dihydropyridin-3-yl)methyl)benzo[d][1,3]dioxole-5-carboxamide]
  IC50: 0.92 nM

## CSc1cc(C)[nH]c(=O)c1CNC(=O)c1cc(Cl)c2c(c1C)OC(C)(C1CCC(N3CC(C#N)C3)CC1)O2 (single isomer, unassigned) [Compound 2, isomer 2, 7-chloro-2-(4-(3-cyanoazetidin-1-yl)cyclohexyl)-2,4-dimethyl-N-((6-methyl-4-(methylthio)-2-oxo-1,2-dihydropyridin-3-yl)methyl)benzo[d][1,3]dioxole-5-carboxamide]
  IC50: 0.72 nM

## CSc1cc(C)[nH]c(=O)c1CNC(=O)c1cc(Cl)c2c(c1C)OC(C)([C@H]1CC[C@@H](NCC3(C)COC3)CC1)O2 (single isomer, unassigned) [Compound 3, isomer 1, 7-chloro-2,4-dimethyl-N-((6-methyl-4-(methylthio)-2-oxo-1,2-dihydropyridin-3-yl)methyl)-2-(4-(((3-methyloxetan-3-yl)methyl)amino)cyclohexyl)benzo[d][1,3]dioxole-5-carboxamide trifluoroacetate]
  IC50: 0.65 nM

## CSc1cc(C)[nH]c(=O)c1CNC(=O)c1cc(Cl)c2c(c1C)OC(C)([C@H]1CC[C@@H](NCC3(C)COC3)CC1)O2 (single isomer, unassigned) [Compound 3, isomer 2, 7-chloro-2,4-dimethyl-N-((6-methyl-4-(methylthio)-2-oxo-1,2-dihydropyridin-3-yl)methyl)-2-(4-(((3-methyloxetan-3-yl)methyl)amino)cyclohexyl)benzo[d][1,3]dioxole-5-carboxamide trifluoroacetate]
  IC50: 0.51 nM

## CSc1cc(C)[nH]c(=O)c1CNC(=O)c1cc(Cl)c2c(c1C)OC(C)(C1CCN(C(=O)C3CC(F)(F)C3)CC1)O2 (single isomer, unassigned) [Compound 5, isomer 1, 7-chloro-2-(1-(3,3-difluorocyclobutane-1-carbonyl)piperidin-4-yl)-2,4-dimethyl-N-((6-methyl-4-(methylthio)-2-oxo-1,2-dihydropyridin-3-yl)methyl)benzo[d][1,3]dioxole-5-carboxamide]
  IC50: 0.58 nM

## CSc1cc(C)[nH]c(=O)c1CNC(=O)c1cc(Cl)c2c(c1C)OC(C)([C@H]1CC[C@@H](NC(=O)C3CC(F)(F)C3)CC1)O2 (single isomer, unassigned) [Compound 6, isomer 1, 7-chloro-2-(4-(3,3-difluorocyclobutane-1-carboxamido)cyclohexyl)-2,4-dimethyl-N-((6-methyl-4-(methylthio)-2-oxo-1,2-dihydropyridin-3-yl)methyl)benzo[d][1,3]dioxole-5-carboxamide]
  IC50: 0.52 nM

## CSc1cc(C)[nH]c(=O)c1CNC(=O)c1cc(Cl)c2c(c1C)OC(C)([C@H]1CC[C@@H](NC(=O)C3CC(F)(F)C3)CC1)O2 (single isomer, unassigned) [Compound 6, isomer 2, 7-chloro-2-(4-(3,3-difluorocyclobutane-1-carboxamido)cyclohexyl)-2,4-dimethyl-N-((6-methyl-4-(methylthio)-2-oxo-1,2-dihydropyridin-3-yl)methyl)benzo[d][1,3]dioxole-5-carboxamide]
  IC50: 0.64 nM

## CSc1cc(C)[nH]c(=O)c1CNC(=O)c1cc(Cl)c2c(c1C)OC(C)(C1CCN(C(=O)C3CC3)CC1)O2 (single isomer, unassigned) [Compound 7, isomer 1, 7-chloro-2-(1-(cyclopropanecarbonyl)piperidin-4-yl)-2,4-dimethyl-N-((6-methyl-4-(methylthio)-2-oxo-1,2-dihydropyridin-3-yl)methyl)benzo[d][1,3]dioxole-5-carboxamide]
  IC50: 0.52 nM

## CSc1cc(C)[nH]c(=O)c1CNC(=O)c1cc(Cl)c2c(c1C)OC(C)(C1CCC(c3cnn(C)c3)CC1)O2 (single isomer, unassigned) [Compound 8, isomer 1, 7-chloro-2,4-dimethyl-2-(4-(1-methyl-1H-pyrazol-4-yl)cyclohexyl)-N-((6-methyl-4-(methylthio)-2-oxo-1,2-dihydropyridin-3-yl)methyl)benzo[d][1,3]dioxole-5-carboxamide]
  IC50: 0.51 nM

## CSc1cc(C)[nH]c(=O)c1CNC(=O)c1cc(Cl)c2c(c1C)OC(C)(C1CCC(c3cnn(C)c3)CC1)O2 (single isomer, unassigned) [Compound 8, isomer 2, 7-chloro-2,4-dimethyl-2-(4-(1-methyl-1H-pyrazol-4-yl)cyclohexyl)-N-((6-methyl-4-(methylthio)-2-oxo-1,2-dihydropyridin-3-yl)methyl)benzo[d][1,3]dioxole-5-carboxamide]
  IC50: 0.9 nM

## CO[C@H]1C[C@H](NC2CCC(C3(C)Oc4c(Cl)cc(C(=O)NCc5c(SC)cc(C)[nH]c5=O)c(C)c4O3)CC2)C1 (single isomer, unassigned) [Compound 9, isomer 1, 7-chloro-2-(4-((trans-3-methoxycyclobutyl)amino)cyclohexyl)-2,4-dimethyl-N-((6-methyl-4-(methylthio)-2-oxo-1,2-dihydropyridin-3-yl)methyl)benzo[d][1,3]dioxole-5-carboxamide]
  IC50: 0.81 nM

## CO[C@H]1C[C@H](NC2CCC(C3(C)Oc4c(Cl)cc(C(=O)NCc5c(SC)cc(C)[nH]c5=O)c(C)c4O3)CC2)C1 (single isomer, unassigned) [Compound 9, isomer 2, 7-chloro-2-(4-((trans-3-methoxycyclobutyl)amino)cyclohexyl)-2,4-dimethyl-N-((6-methyl-4-(methylthio)-2-oxo-1,2-dihydropyridin-3-yl)methyl)benzo[d][1,3]dioxole-5-carboxamide]
  IC50: 0.48 nM

## CSc1cc(C)[nH]c(=O)c1CNC(=O)c1cc(Cl)c2c(c1C)OC(C)(C1CCN(CC3CC(F)(F)C3)CC1)O2 (single isomer, unassigned) [Compound 10, isomer 1, 7-chloro-2-(1-((3,3-difluorocyclobutyl)methyl)piperidin-4-yl)-2,4-dimethyl-N-((6-methyl-4-(methylthio)-2-oxo-1,2-dihydropyridin-3-yl)methyl)benzo[d][1,3]dioxole-5-carboxamide]
  IC50: 0.56 nM

## CSc1cc(C)[nH]c(=O)c1CNC(=O)c1cc(Cl)c2c(c1C)OC(C)(C1CCN(C3CC(F)(F)C3)CC1)O2 (single isomer, unassigned) [Compound 12, isomer 1, 7-chloro-2-(1-(3,3-difluorocyclobutyl)piperidin-4-yl)-2,4-dimethyl-N-((6-methyl-4-(methylthio)-2-oxo-1,2-dihydropyridin-3-yl)methyl)benzo[d][1,3]dioxole-5-carboxamide]
  IC50: 0.74 nM

## CSc1cc(C)[nH]c(=O)c1CNC(=O)c1cc(Cl)c2c(c1C)OC(C)(C1CCC(N3CCC4(CNC(=O)C4)C3)CC1)O2 (single isomer, unassigned) [Compound 18, isomer 2, 7-chloro-2,4-dimethyl-N-((6-methyl-4-(methylthio)-2-oxo-1,2-dihydropyridin-3-yl)methyl)-2-(4-(8-oxo-2,7-diazaspiro[4.4]nonan-2-yl)cyclohexyl)benzo[d][1,3]dioxole-5-carboxamide]
  IC50: 0.78 nM

## CSc1cc(C)[nH]c(=O)c1CNC(=O)c1cc(Cl)c2c(c1C)OC(C)([C@H]1CC[C@H](CNC3CC(F)(F)C3)CC1)O2 (single isomer, unassigned) [Compound 40, isomer 1, 7-chloro-2-(4-(((3,3-difluorocyclobutyl)amino)methyl)cyclohexyl)-2,4-dimethyl-N-((6-methyl-4-(methylthio)-2-oxo-1,2-dihydropyridin-3-yl)methyl)benzo[d][1,3]dioxole-5-carboxamide]
  IC50: 0.61 nM

## CSc1cc(C)[nH]c(=O)c1CNC(=O)c1cc(Cl)c2c(c1C)OC(C)([C@H]1CC[C@H](CNC3CC(F)(F)C3)CC1)O2 (single isomer, unassigned) [Compound 40, isomer 2, 7-chloro-2-(4-(((3,3-difluorocyclobutyl)amino)methyl)cyclohexyl)-2,4-dimethyl-N-((6-methyl-4-(methylthio)-2-oxo-1,2-dihydropyridin-3-yl)methyl)benzo[d][1,3]dioxole-5-carboxamide]
  IC50: 0.51 nM
